In patent US20050075375A1 (priority 2003, published 2005):
Like-named read-outs stand apart in the source and are kept apart here.

System: monocistronic NK5.1 HCV replicon in Huh7 cells
Experiment: HCV replicon assay, monocistronic replicon cell line
Format: cell-based, hepatitis C virus
Settings: Hepatitis C virus, read-out: Mono EC50 Median
How it was run: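 Huh7 cells carrying the monocistronic NK5.1 replicon, seeded 24 h before dosing, were exposed to six-point half-log compound series (0.6% DMSO) for 3 days at 37 °C. Replicon RNA was quantified by TaqMan RT-PCR, normalised to GAPDH and compared with DMSO controls to derive EC50.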

[1] = Huh-7, monocistronic NK5.1 HCV replicon in Huh7 cells, median value
[2] = Huh-7, 72 h, table T3 (compounds 471-640), monocistronic replicon in Huh7 cells, 3 days incubation, HCV RNA/GAPDH RNA by TaqMan RT-PCR

CC1(C)CCN2CCC(C)(C)c3c(O)c(-c4nc(-c5cnccc5C(F)(F)F)n[nH]4)cc1c32 [Compound 425, 1,1,7,7-Tetramethyl-9-[5-(4-trifluoromethyl-pyridin-3-yl)-2H-[1,2,4]triazol-3-yl]-2,3,6,7-tetrahydro-1H,5H-pyrido[3,2,1-ij]quinolin-8-ol]
EC50 [1]: 2.9 µM

Oc1ccc(O)c(-c2nc(-c3cnccc3C(F)(F)F)n[nH]2)c1 [Compound 426, 4-Hydroxy-2-[5-(4-trifluoromethyl-pyridin-3-yl)-2H-[1,2,4]triazol-3-yl]-phenol]
EC50 [1]: 12 µM

COc1cccc(-c2nc(-c3cnccc3C(F)(F)F)n[nH]2)c1 [Compound 427, 3-[5-(3-Methoxy-phenyl)-1H-[1,2,4]triazol-3-yl]-4-trifluoromethyl-pyridine]
EC50 [1]: > 19 µM

CC(C)c1ccc(-c2nc(-c3cnccc3C(F)(F)F)n[nH]2)cc1 [Compound 428, 3-[5-(4-Isopropyl-phenyl)-1H-[1,2,4]triazol-3-yl]-4-trifluoromethyl-pyridine]
EC50 [1]: > 19 µM

Oc1ccc2ccccc2c1-c1nc(-c2cnccc2C(F)(F)F)n[nH]1 [Compound 429, 1-[5-(4-trifluoromethyl-pyridin-3-yl)-2H-[1,2,4]triazol-3-yl]-naphthalen-2-ol]
EC50 [1]: > 19 µM

FC(F)(F)c1ccncc1-c1n[nH]c(-c2ccc(Br)cc2)n1 [Compound 430, 3-[5-(4-Bromo-phenyl)-1H-[1,2,4]triazol-3-yl]-4-trifluoromethyl-pyridine]
EC50 [1]: > 19 µM

Brc1ccccc1-c1nc(-c2ccccn2)n[nH]1 [Compound 431, 2-[5-(2-Bromo-phenyl)-1H-[1,2,4]triazol-3-yl]-pyridine]
EC50 [1]: > 19 µM

Brc1cccc(-c2nc(-c3ccccn3)n[nH]2)c1 [Compound 432, 2-[5-(3-Bromo-phenyl)-1H-[1,2,4]triazol-3-yl]-pyridine]
EC50 [1]: 19 µM

Brc1ccc(-c2nc(-c3ccccn3)n[nH]2)cc1 [Compound 433, 2-[5-(4-Bromo-phenyl)-1H-[1,2,4]triazol-3-yl]-pyridine]
EC50 [1]: > 19 µM

Fc1ccccc1-c1nc(-c2ccccn2)n[nH]1 [Compound 434, 2-[5-(2-Fluoro-phenyl)-1H-[1,2,4]triazol-3-yl]-pyridine]
EC50 [1]: > 19 µM

Clc1cccc(Cl)c1-c1nc(-c2ccccn2)n[nH]1 [Compound 435, 2-[5-(2,6-Dichloro-phenyl)-1H-[1,2,4]triazol-3-yl]-pyridine]
EC50 [1]: > 19 µM

Fc1cccc(Cl)c1-c1nc(-c2ccccn2)n[nH]1 [Compound 436, 2-[5-(2-Fluoro-6-chloro-phenyl)-1H-[1,2,4]triazol-3-yl]-pyridine]
EC50 [1]: 16 µM

Brc1ccccc1-c1nc(-c2nccc3ccccc23)n[nH]1 [Compound 437]
EC50 [1]: 2.7 µM

Brc1cccc(-c2nc(-c3nccc4ccccc34)n[nH]2)c1 [Compound 438]
EC50 [1]: > 19 µM

Brc1ccc(-c2nc(-c3nccc4ccccc34)n[nH]2)cc1 [Compound 439]
EC50 [1]: > 19 µM

Cc1cccnc1-c1n[nH]c(-c2cccc3ccccc23)n1 [Compound 440, 3-Methyl-2-(5-naphthalen-1-yl-1H-[1,2,4]triazol-3-yl)-pyridine]
EC50 [1]: 5.6 µM

Cc1cccnc1-c1n[nH]c(-c2cc(C(C)(C)C)ccc2O)n1 [Compound 441, 4-tert-Butyl-2-[5-(3-methyl-pyridin-2-yl)-2H-[1,2,4]triazol-3-yl]-phenol]
EC50 [1]: > 10 µM

Cc1cccnc1-c1n[nH]c(-c2cc([N+](=O)[O-])ccc2O)n1 [Compound 442, 4-Nitro-2-(5-(3-methyl-pyridin-2-yl)-2H-[1,2,4]triazol-3-yl)-phenol]
EC50 [1]: 7.9 µM

Cc1cccnc1-c1n[nH]c(-c2cc(F)ccc2O)n1 [Compound 443, 4-Fluoro-2-(5-(3-methyl-pyridin-2-yl)-2H-[1,2,4]triazol-3-yl)-phenol]
EC50 [1]: > 10 µM

COc1ccc(O)c(-c2nc(-c3ncccc3C)n[nH]2)c1 [Compound 444, 4-Methoxy-2-(5-(3-methyl-pyridin-2-yl)-2H-[1,2,4]triazol-3-yl)-phenol]
EC50 [1]: 7.7 µM

Cc1cccnc1-c1n[nH]c(-c2cc(Cl)ccc2O)n1 [Compound 445, 4-Chloro-2-(5-(3-methyl-pyridin-2-yl)-2H-[1,2,4]triazol-3-yl)-phenol]
EC50 [1]: 2.9 µM

CCOc1cccc(-c2nc(-c3ncccc3C)n[nH]2)c1O [Compound 446, 6-Ethoxy-2-(5-(3-methyl-pyridin-2-yl)-2H-[1,2,4]triazol-3-yl)-phenol]
EC50 [1]: 7.8 µM

Cc1cccnc1-c1n[nH]c(-c2ccc(OCc3ccccc3)cc2O)n1 [Compound 447, 5-Benzyloxy-2-(5-(3-methyl-pyridin-2-yl)-2H-[1,2,4]triazol-3-yl)-phenol]
EC50 [1]: > 10 µM

Cc1cccnc1-c1n[nH]c(-c2ccc(-c3ccccc3)c(F)c2)n1 [Compound 448, 2-[5-(2-Fluoro-biphenyl-4-yl)-1H-[1,2,4]triazol-3-yl]-3-methyl-pyridine]
EC50 [1]: 28 µM

Cc1cccnc1-c1n[nH]c(-c2cc(Br)ccc2O)n1 [Compound 449, 4-Bromo-2-(5-(3-methyl-pyridin-2-yl)-2H-[1,2,4]triazol-3-yl)-phenol]
EC50 [1]: 2.3 µM

Cc1ccc(O)c(-c2nc(-c3ncccc3C)n[nH]2)c1 [Compound 450, 4-Methyl-2-(5-(3-methyl-pyridin-2-yl)-2H-[1,2,4]triazol-3-yl)-phenol]
EC50 [1]: 4.2 µM

COc1ccc(-c2nc(-c3ncccc3C)n[nH]2)c(O)c1 [Compound 451, 5-Methoxy-2-(5-(3-methyl-pyridin-2-yl)-2H-[1,2,4]triazol-3-yl)-phenol]
EC50 [1]: 23 µM

Cc1cccnc1-c1n[nH]c(-c2ccccc2O)n1 [Compound 452, 2-(5-(3-methyl-pyridin-2-yl)-2H-[1,2,4]triazol-3-yl)-phenol]
EC50 [1]: 31 µM

COc1cccc(-c2nc(-c3ncccc3C)n[nH]2)c1O [Compound 453, 6-Methoxy-2-(5-(3-methyl-pyridin-2-yl)-2H-[1,2,4]triazol-3-yl)-phenol]
EC50 [1]: 21 µM

Cc1cccnc1-c1n[nH]c(-c2cccc([N+](=O)[O-])c2)n1 [Compound 454, 3-Methyl-2-[5-(3-nitro-phenyl)-1H-[1,2,4]triazol-3-yl]-pyridine]
EC50 [1]: 24 µM

CCN(CC)c1ccc(-c2n[nH]c(-c3ncccc3C)n2)c(O)c1 [Compound 455, 5-Diethylamino-2-[5-(3-methyl-pyridin-2-yl)-2H-[1,2,4]triazol-3-yl]-phenol]
EC50 [1]: 8.1 µM

Cc1cccnc1-c1n[nH]c(-c2cc3c4c(c2O)C(C)(C)CCN4CCC3(C)C)n1 [Compound 456, 1,1,7,7-Tetramethyl-9-[5-(3-methyl-pyridin-2-yl)-2H-[1,2,4]triazol-3-yl]-2,3,6,7-tetrahydro-1H,5H-pyrido[3,2,1-ij]quinolin-8-ol]
EC50 [1]: 0.73 µM

Cc1cccnc1-c1n[nH]c(-c2cc(O)ccc2O)n1 [Compound 457, 4-Hydroxy-2-[5-(3-methyl-pyridin-2-yl)-2H-[1,2,4]triazol-3-yl]-phenol]
EC50 [1]: 4.1 µM

COc1cccc(-c2nc(-c3ncccc3C)n[nH]2)c1 [Compound 458, 2-[5-(3-Methoxy-phenyl)-1H-[1,2,4]triazol-3-yl]-3-methyl-pyridine]
EC50 [1]: > 32 µM

COc1ccc(F)c(-c2nc(-c3ncccc3C)n[nH]2)c1 [Compound 459, 2-[5-(2-Fluoro-5-methoxy-phenyl)-1H-[1,2,4]triazol-3-yl]-3-methyl-pyridine]
EC50 [1]: > 32 µM

Cc1cccnc1-c1n[nH]c(-c2ccc(C(C)C)cc2)n1 [Compound 460, 2-[5-(4-Isopropyl-phenyl)-1H-[1,2,4]triazol-3-yl]-3-methyl-pyridine]
EC50 [1]: 3 µM

Cc1cccnc1-c1n[nH]c(-c2c(O)ccc3ccccc23)n1 [Compound 461, 1-(5-(3-methyl-pyridin-2-yl)-2H-[1,2,4]triazol-3-yl)-naphthalen-2-ol]
EC50 [1]: 6.9 µM

Cc1cccc(-c2n[nH]c(-c3ccccc3Br)n2)n1 [Compound 462, 2-[5-(2-Bromo-phenyl)-1H-[1,2,4]triazol-3-yl]-6-mehtyl-pyridine]
EC50 [1]: > 32 µM

Cc1cccc(-c2n[nH]c(-c3cccc(Br)c3)n2)n1 [Compound 463, 2-[5-(3-Bromo-phenyl)-1H-[1,2,4]triazol-3-yl]-6-methyl-pyridine]
EC50 [1]: 19 µM

Cc1cccc(-c2n[nH]c(-c3ccc(Br)cc3)n2)n1 [Compound 464, 2-[5-(4-Bromo-phenyl)-1H-[1,2,4]triazol-3-yl]-6-methyl-pyridine]
EC50 [1]: > 32 µM

Cc1cccc(-c2n[nH]c(-c3ccccc3F)n2)n1 [Compound 465, 2-[5-(2-Fluoro-phenyl)-1H-[1,2,4]triazol-3-yl]-6-methyl-pyridine]
EC50 [1]: > 32 µM

Cc1cccc(-c2n[nH]c(-c3ccccc3Cl)n2)n1 [Compound 466, 2-[5-(2-Chloro-phenyl)-1H-[1,2,4]triazol-3-yl]-6-methyl-pyridine]
EC50 [1]: > 32 µM

Cc1cccc(-c2n[nH]c(-c3c(Cl)cccc3Cl)n2)n1 [Compound 467, 2-[5-(2,6-Dichloro-phenyl)-1H-[1,2,4]triazol-3-yl]-6-methyl-pyridine]
EC50 [1]: > 32 µM

Cc1cccc(-c2n[nH]c(-c3c(F)cccc3F)n2)n1 [Compound 468, 2-[5-(2,6-Difluoro-phenyl)-1H-[1,2,4]triazol-3-yl]-6-methyl-pyridine]
EC50 [1]: > 32 µM

Cc1cccc(-c2n[nH]c(-c3c(F)cccc3Cl)n2)n1 [Compound 469, 2-[5-(2-Fluoro-6-chloro-phenyl)-1H-[1,2,4]triazol-3-yl]-6-methyl-pyridine]
EC50 [1]: > 32 µM

Fc1ccccc1-c1nc(-c2nccc3ccccc23)n[nH]1 [Compound 470]
EC50 [1]: 7.2 µM

Clc1ccccc1-c1nc(-c2nccc3ccccc23)n[nH]1 [Compound 471]
EC50 [2]: 6.1 µM

Clc1ccccc1-c1nc(-c2ccccn2)n[nH]1 [Compound 472, 2-[5-(2-Chloro-phenyl)-1H-[l,2,4]triazol-3-yl]-pyridine]
EC50 [2]: > 32 µM
